Where a SMILES comes first, the peptide text is derived from it. Bridges are numbered along the chain shown (N, C = ends). The star is where a group is joined. DOTA = O=C(O)CN1CCN(CC(=O)O)CCN(CC(=O)*)CCN(CC(=O)O)CC1
How the values were obtained:
tumor-free lymph nodes = assay: Histochemical peptide staining of carcinoma-free lymph nodes; parameters: species or system human
Procedure: Staining with the biotinylated PEG(12)-SFITGv6 peptide was performed on acetone-fixed cryosections (5 μm) of tumor tissues after blocking of unspecific binding using the Avidin/Biotin Blocking Kit (SP-2001, Vector Laboratories). A stock solution of the lyophilized peptide was prepared by dilution in 5% aqueous DMSO. Slices were incubated overnight at 4° C. with 10^-5 M peptide concentration in antibody diluent (DAKO). Detection of bound peptide was carried out with the Vectastain Elite ABC Kit (PK-6100, Vector Laboratories) according to manufacturer's protocol. Peptide specificity was ensured by a scrambled (GRD) PEG(12)-SFITGv6 derivate, the somatostatin receptor ligand DOTATOC and negative controls (without peptide or primary antibody) Staining results were assessed by bright field microscopy (BX50) with the SC30 camera and the cell Sense software (all Olympus).

ITGαvβ3 = ITGαvβ3 (Homo sapiens, UniProt P05106+P06756); assay: Surface plasmon resonance assay (SPR), ITGαvβ3; format: binding
Chain of ITGαvβ3 (P06756 31-992 limits assumed): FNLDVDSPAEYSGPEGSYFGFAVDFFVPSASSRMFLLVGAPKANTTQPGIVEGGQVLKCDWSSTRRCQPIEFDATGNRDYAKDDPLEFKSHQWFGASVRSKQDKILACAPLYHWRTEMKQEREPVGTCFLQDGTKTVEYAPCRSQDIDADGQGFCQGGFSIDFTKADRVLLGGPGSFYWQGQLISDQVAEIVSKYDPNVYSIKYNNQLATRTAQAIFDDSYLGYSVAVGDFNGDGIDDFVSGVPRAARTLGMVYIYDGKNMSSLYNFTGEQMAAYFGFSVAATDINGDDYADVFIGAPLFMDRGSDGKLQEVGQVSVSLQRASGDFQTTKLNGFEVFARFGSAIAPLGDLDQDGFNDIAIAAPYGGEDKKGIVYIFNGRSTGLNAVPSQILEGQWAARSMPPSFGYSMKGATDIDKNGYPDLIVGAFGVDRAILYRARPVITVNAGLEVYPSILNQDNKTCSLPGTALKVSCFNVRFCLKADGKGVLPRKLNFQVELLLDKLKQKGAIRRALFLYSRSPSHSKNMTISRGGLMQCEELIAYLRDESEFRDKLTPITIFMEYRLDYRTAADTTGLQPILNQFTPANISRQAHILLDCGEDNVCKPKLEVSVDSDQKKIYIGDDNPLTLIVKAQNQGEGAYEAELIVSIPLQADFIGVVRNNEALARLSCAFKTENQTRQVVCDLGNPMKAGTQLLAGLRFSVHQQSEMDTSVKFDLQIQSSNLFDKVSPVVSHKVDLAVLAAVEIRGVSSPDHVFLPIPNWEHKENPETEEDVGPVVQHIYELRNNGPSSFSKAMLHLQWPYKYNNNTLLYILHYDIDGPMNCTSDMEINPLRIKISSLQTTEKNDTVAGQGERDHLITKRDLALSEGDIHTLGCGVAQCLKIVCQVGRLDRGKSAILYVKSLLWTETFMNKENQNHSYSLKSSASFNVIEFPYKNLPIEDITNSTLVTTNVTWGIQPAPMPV
Chain of ITGαvβ3 (P05106 27-718 limits assumed): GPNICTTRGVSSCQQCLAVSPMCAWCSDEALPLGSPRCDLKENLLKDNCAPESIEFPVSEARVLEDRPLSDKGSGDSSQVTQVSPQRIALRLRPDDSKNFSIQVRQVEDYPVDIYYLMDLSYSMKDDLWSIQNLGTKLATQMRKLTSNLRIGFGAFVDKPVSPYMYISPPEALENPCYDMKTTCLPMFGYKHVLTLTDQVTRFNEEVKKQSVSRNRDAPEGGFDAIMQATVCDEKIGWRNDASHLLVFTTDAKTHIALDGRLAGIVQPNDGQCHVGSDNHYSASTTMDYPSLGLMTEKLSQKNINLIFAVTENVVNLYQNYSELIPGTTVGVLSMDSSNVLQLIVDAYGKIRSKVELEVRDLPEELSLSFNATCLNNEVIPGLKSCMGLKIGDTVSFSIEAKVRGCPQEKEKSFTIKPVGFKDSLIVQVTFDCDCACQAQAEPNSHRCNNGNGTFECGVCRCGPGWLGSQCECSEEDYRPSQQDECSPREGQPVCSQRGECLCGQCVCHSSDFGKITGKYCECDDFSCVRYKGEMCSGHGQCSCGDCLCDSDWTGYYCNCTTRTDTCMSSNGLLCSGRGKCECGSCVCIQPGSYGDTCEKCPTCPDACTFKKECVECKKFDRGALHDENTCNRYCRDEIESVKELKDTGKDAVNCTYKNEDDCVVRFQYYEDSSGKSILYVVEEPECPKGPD
Procedure: (§1) Assessment of the binding affinity was performed on a BiaCore X100 (GE Healthcare). To avoid denaturation of the heterodimer during amide activation ITGαvβ6 and ITGαvβ3, respectively, were used as analytes and SFITGv6 was immobilized at its N-terminus on a C1 sensor Chip (BR-1005-35, GE Healthcare) using a manual amine coupling protocol. Briefly, after activation of the sensor chip surface with a solution of EDC 0.4 M/NHS 0.1 M for 5 min a 100 μM peptide dissolved in HBS-EP running buffer (0.1 M HEPES, 30 mM EDTA, 1.5 M NaCl, 0.5% surfactant P20, pH 7.2) was immobilized with a contact time of 30 sec until a loading level of 18 response units (RU) was obtained. […] The SPR-sensogram data were evaluated with the BiaCore evaluation software. The dissociation constant (KD) was determined by a 1:1 Langmuir model fit of the SPR-sensograms.
as §1, with “SFLAP3” for “peptide”, “to obtain” for “until”, “12” for “18”, “(RU).” for “(RU) was obtained.”, “SPR sensogram” for “SPR-sensogram”, “SPR sensograms.” for “SPR-sensograms.”

Capan-2 cells = assay: In vitro binding, internalization and efflux on Capan-2 cells; format: cell-based, human
Procedure: For in vitro binding Studies, 4*10^5-6*10^5 cells were seeded in 6 well plates and cultivated for 24 to 48 hours. At the start of the experiment the medium was replaced with 1 ml serum free medium with a definite amount of radioactive labeled peptide per well. For normal binding assays the cells were incubated for 60 min at 37° C. and afterwards washed 3 times with PBS (pH 7.4). Cells were lysed with 2 times 0.5 ml of a 0.3 M NaOH +0.2% SDS lysis-buffer. Competition assays were performed with ^125I-labeled and unlabelled (10^−6 to 10^−11M) peptide and incubated at the same time for 60 min.
Cells were incubated for 10 to 240 min with ^177Lu-labelled peptide in internalization assays. After the washing steps, the cells were incubated with 1 ml glycine-HCl (1 M, pH 2.2) buffer for 10 min to remove surface bound peptide. Prior to the lyses the cells were washed again. Values are given as percentage of applied dose per 10^6 cells.
The efflux was tested with ^177Lu-labeled peptides. After 60 min incubation the radioactive medium was removed and 1 ml fresh serum-free medium was added. After additional incubation of 60, 120 or 240 min, cell bound activity was measured.

HNO399 cells = assay: In vitro binding on HNO399 cells; format: cell-based, human; conditions: Example 2, 10 min to 480 min (FIG. 16)
Procedure: For the assessment of the peptide binding capacity in vitro, 2.5-4×10^5 cells were seeded into 6-well plates and cultivated for 48 h. ^125I-labeled peptide resuspended in 1 mL serum-free medium was added and incubated for either 10 min or 60 min with or without different concentrations of unlabeled peptide (10^−4-10^−11 M). Afterwards, cell monolayers were washed three times with 1 mL phosphate-buffered saline (pH 7.4) to remove unbound peptide and the cells were harvested with 1.4 mL lysis buffer (0.3 M NaOH). […] For the efflux experiments the cells were incubated with ^177Lu-DOTA-labeled peptides for 60 min. Thereafter, radioactive medium was replaced by non-radioactive medium and cell monolayers were incubated for additional 60, 120, and 240 min and afterwards lysed as described earlier. […] Unspecifically bound peptide was removed from the surface by incubation with 1 M glycine-HCl solution (pH 2.2) for 10 min. The monolayer cell was rinsed with PBS and cells were lysed as described before. Radioactivity was determined in a y-counter and calculated as percentage of the applied dose per 1×10^6 cells. Experiments were performed three times, and three repetitions per independent experiment were acquired.

[1] = system: metastasized pancreatic cancer; assay: PET/CT and scintigraphy of pancreatic cancer patient; format: in vivo, human; conditions: 1 day after 6.5 GBq
Procedure: (§2) PET/CT scans of tumor patients and body scintigraphy were performed as described in Example 1.

ovarian cancer = assay: Scintigraphy of ovarian cancer patients; format: in vivo, human; conditions: 1 day after 6 GBq and 7.4 GBq
Procedure: as §2

CSCC[C@@H]1NC(=O)[C@H](CC(C)C)NC(=O)[C@H](CC(=O)O)NC(=O)CNC(=O)[C@H](CCCNC(=N)N)NC(=O)[C@H](Cc2ccccc2)NC(=O)[C@H]([C@@H](C)O)NC(=O)[C@@H](NC(=O)[C@H](CCCNC(=N)N)NC(=O)CN)CSSC[C@@H](C(=O)N[C@@H](Cc2ccc(O)cc2)C(=O)N2CCC[C@H]2C(=O)N[C@@H](CC(=O)O)C(=O)O)NC(=O)[C@H](CC(C)C)NC(=O)[C@H](CCC(N)=O)NC1=O [SFITGv6, NH2-G-R-C1-T-F-R-G-D-L-M-Q-L-C1-Y-P-D-COOH] (H-GRCTFRGDLMQLCYPD-OH; disulfide 3-13)
histochemical peptide staining result (tumor-free lymph nodes): did not show any SFITGv6-specificy | lower affinity for ITGαvβ3 than for ITGαvβ6 (ITGαvβ3; SPR): ten-fold lower affinity | Kd (ITGαvβ3; peptide immobilized, integrin as analyte, 1:1 Langmuir fit): 185 ± 0.8 nM

CC(C)C[C@@H]1NC(=O)[C@H](CC(=O)O)NC(=O)CNC(=O)[C@H](CCCNC(=N)N)NC(=O)CNC(=O)[C@H]([C@@H](C)O)NC(=O)[C@@H](NC(=O)[C@H](CCCNC(=N)N)NC(=O)CNC(=O)CN2CCN(CC(=O)O)CCN(CC(=O)O)CCN(CC(=O)O)CC2)CSSC[C@@H](C(=O)N[C@@H](Cc2ccc(O)cc2)C(=O)N2CCC[C@H]2C(=O)N[C@@H](CC(=O)O)C(N)=O)NC(=O)[C@H](CC(C)C)NC(=O)[C@H](CCCNC(=N)N)NC(=O)CNC1=O [^177Lu-DOTA-SFLAP3, metal not drawn] ({DOTA}-GRCTGRGDLGRLCYPD-NH2; disulfide 3-13; N-terminus and C-terminus assumed)
cell binding of ^177Lu-DOTA-labeled peptide (Capan-2 cells; after 60 min): 9.5% | internalization rate in comparison of the three peptides (Capan-2 cells; after 4 hours): highest internalization rate | efflux (released into the culture medium) (Capan-2 cells; during 4 hours following 60 min exposure): 50% | maximum binding capacity of ^177Lu-DOTA-labeled peptide (kinetics) (HNO399 cells): 4.31% | scintigraphic accumulation [1]: accumulation in the metastatic sites | scintigraphic accumulation (ovarian cancer): moderate to good accumulation in the metastases

Source: patent publication US20200131227A1, “POLYPEPTIDE WITH TUMOUR BINDING ACTIVITY” (RUPRECHT-KARLS-UNIVERSITÄT HEIDELBERG, priority 2017, published 2020)
